Data reported in a melting point compilation (Tetko et al.; mined from patent text by program, amines drawn as free bases though some values may be those of a salt).

For `CC(C#N)=C1CCN(c2ccc(N3C[C@H](CNC(=O)C(F)F)OC3=O)cc2F)CC1`, the melting point was 172 to 174 °C.
`CC(NC(=O)Cc1cc(F)cc(F)c1)C(=O)NC1C(=O)N(C)Cc2ccccc21` (stereo unspecified) gave a melting point of 174 to 175 °C.
Molecule `CCCCCCCCCCCCCCCCN1C(=O)C2=C(c3cccs3)N(CCCCCCCCCCCCCCCC)C(=O)C2=C1c1cccs1` has a melting point of 124 to 125 °C.
`Cc1ccc(C(=O)Nc2c(NC(=O)CN3CCN(c4ncccn4)CC3)ccc3c2C(=O)c2ccccc2C3=O)cc1` showed a melting point of 267 to 268 °C.
Molecule `COc1ccc2cc(-c3ccnc(NCCc4ccc(OC)c(OC)c4)n3)cc(N3CCNCC3)c2c1` has a melting point of 138 to 140 °C.
For `NS(=O)(=O)c1ccc(F)c(F)c1`, the melting point was 89 to 91 °C.
In the case of `CC(CN(O)C(N)=O)OCc1ccco1` (stereo unspecified), the melting point is reported as 59 to 62 °C.
Work on `COc1cc2c(cc1O)C(Cc1cc(Cl)ccc1[N+](=O)[O-])N(C)CC2` (stereo unspecified) yielded a melting point of 123 to 126 °C.
Work on `Cc1oc(-c2ccccc2)nc1CCOc1ccc(C[C@H](NC(=O)C=Cc2ccc(F)cc2F)C(=O)O)cc1` yielded a melting point of 199 to 201 °C.
Work on `COc1ccc2c(c1)c1c(n2Cc2ccccc2)CCCC1C(=O)N1CCN(c2ccccc2)CC1` (stereo unspecified) yielded a melting point of 142 to 143 °C.
`CCCN(CCc1ccccc1)CCc1cccc2[nH]c(=O)[nH]c12` gave a melting point of 176 to 177 °C.
`COCc1ncc(OC)c(=O)[nH]1` gave a melting point of 61 °C.
In the case of `CCOC(=O)CN1Cc2ccccc2C[C@H](NC(=O)OCc2ccccc2)C1=O`, the melting point is reported as 80 to 82 °C.
`COc1ccc(-c2[nH]c3cn[nH]c(=O)c3c2Cl)cc1OCC1CC1` gave a melting point of 256 to 258 °C.
Work on `C[C@H](NC(=O)C1(C)Sc2ccccc2NC1=O)C(=O)N[C@H](CCC(=O)O)C(N)=O` (stereo partly specified) yielded a melting point of 124 to 125 °C.
`CC(C)(O)Cn1cnc2c(N)nc3cc(CCC(=O)N4CCOCC4)ccc3c21` gave a melting point of 217 to 218 °C.
For `CC(C)[C@@H]1C[C@@H]([C@H](CC2CCCCC2)N=[N+]=[N-])OC1=O`, the melting point was 38.5 to 39 °C.
`CNC(=O)C1C(C)(C)C1(C)C` showed a melting point of 98 °C.
`CSCc1nnc(-c2ccc3occ(-c4cccc(OC(F)(F)F)c4)c3c2)o1` showed a melting point of 84 to 85 °C.
`COc1cc(Nc2nccc(-c3ccc(C#N)cc3)n2)cc(OC)c1OC` showed a melting point of 183 °C.
`CCCc1nc(SC(F)F)c(C(=O)O)n1Cc1ccc(-c2ccccc2S(=O)(=O)NC(=O)NCc2cccs2)cc1` gave a melting point of 142 °C.
With `CC(C)c1ncc(C(=O)O)nc1C(C)C` the melting point was 128 to 130 °C.
Molecule `COc1ccc2nccc(CCC[C@@H]3CCN(CC#Cc4ccccc4)C[C@@H]3C(=O)O)c2c1` has a melting point of 166 °C.
`COc1cccc(Cn2cc3c(-c4cccc(C(=O)NCCC#N)c4)cccc3n2)n1` showed a melting point of 145 to 146 °C.
`Cc1ccc(S(=O)(=O)OCC2COc3ccc4nocc4c3O2)cc1` (stereo unspecified) gave a melting point of 109 to 110 °C.
With `COCCCOc1cc(N(C)S(=O)(=O)c2ccccn2)c2[nH]c(C3=NCC(CN4CCS(=O)CC4)S3)cc2c1` (stereo unspecified) the melting point was 176 to 177 °C.
In the case of `COc1cc2cc(C(=O)NO)sc2cc1OC`, the melting point is reported as 179 to 180 °C.
With `O=C(O)C(O)(c1cccs1)c1cccs1` the melting point was 84 °C.
`Cc1nnc2c(-c3ccccn3)cccn12` showed a melting point of 142 to 143 °C.
In the case of `CCOC(=O)CN1CCN(C2=Nc3ccccc3Cc3ccccc32)CC1`, the melting point is reported as 107 to 108 °C.
With `CC(=O)N[C@@H]1CN2C(=O)N(c3cc(Cl)nc(Cl)c3)C(=O)[C@@]2(Cc2ccc(OC(F)(F)F)cc2)C1` the melting point was 127 °C.
For `COc1ccc(C(=O)Nc2c(Cl)cncc2Cl)c2c1OCC2CC(=O)NCc1ccccc1Cl` (stereo unspecified), the melting point was 288 to 289 °C.
Work on `CC(O)C1C(=O)N2C(C(=O)OCc3ccc([N+](=O)[O-])cc3)C(=O)CC12` (mixture of isomers) yielded a melting point of 92 to 98 °C.
For `CC1(O)OC(=O)C=C1c1ccccc1` (stereo unspecified), the melting point was 105 to 107 °C.
`COC(=O)c1ccc2oc(-c3cccs3)nc2c1` showed a melting point of 141 to 142 °C.
With `CC(=O)N(C(C)=O)c1ccc(C=Cc2ccc3ccccc3n2)cc1` the melting point was 148 to 150 °C.
For `Cc1sc2c(c1C(=O)CCCCl)C(=O)NCCC2`, the melting point was 113 to 115 °C.
With `Oc1ccc2oc(-c3ccc(F)cc3)nc2c1` the melting point was 166 to 168 °C.
With `COc1ccc(C(=O)N(C)Cc2cccc(-c3ccc(CC4SC(=O)NC4=O)cc3)c2)cc1` (stereo unspecified) the melting point was 170 °C.
With `CC(=O)CC1(C(=O)c2ccc([N+](=O)[O-])cc2)C=CC(Cl)=C(Cl)C1` (stereo unspecified) the melting point was 121 to 122 °C.
`CN(C)c1cc(CCl)nc(N)n1` gave a melting point of 127 to 129 °C.
`COc1ccc2[nH]ccc2c1OCc1ccccc1` gave a melting point of 83 to 84 °C.
Molecule `CN(SN(C)C(=O)F)C(=O)F` has a melting point of 40 to 41 °C.
In the case of `Oc1c(Br)c(Br)c(Cl)c(Br)c1Br`, the melting point is reported as 210 to 212 °C.
In the case of `CCOC(=O)C(=O)Nc1ccc(NC(=O)C(=O)OCC)nc1`, the melting point is reported as 178 to 180 °C.
With `CC(=O)Oc1cccc2c1C(=O)c1c(OC(C)=O)cc(C(=O)NOCc3ccccc3)cc1C2=O` the melting point was 192 to 194 °C.
`CC(C)NCC(O)COc1nccnc1C1CNCCO1` (stereo unspecified) showed a melting point of 74 to 76 °C.
In the case of `OC(CSc1ncnc2c1cnn2CC1CO1)CN1CCN(C(c2ccccc2)c2ccccc2)CC1` (stereo unspecified), the melting point is reported as 87 to 92 °C.
`Cc1ccc(C(=O)N(C)C)cc1-c1nc(NC2CCN(C)CC2)nc2c1CNC(=O)N2c1c(F)cccc1F` gave a melting point of 163 to 165 °C.
Molecule `CNC(=O)c1cc(C)c(C(c2cc(F)ccc2F)S(=O)(=O)c2ccc(Cl)cc2)cn1` (stereo unspecified) has a melting point of 200 to 201 °C.
Work on `O=Cc1cnc(Sc2nc3ccccc3[nH]2)s1` yielded a melting point of 188 °C.
`COc1c(C)c(C)c(OC)c(C(O)(c2cccnc2)C2CCCCC2)c1C` (stereo unspecified) gave a melting point of 134 to 135 °C.
Work on `CCCCOCCN(CCCCCSc1nc(-c2ccccc2)c(-c2ccccc2)[nH]1)C(=O)Nc1ccc(F)cc1F` yielded a melting point of 69 to 71 °C.
With `Fc1cccc([C@@H]2COCC(=S)N2)c1` the melting point was 124 to 125 °C.
In the case of `CCCCCCCCSCCSc1nc(N)n[nH]1`, the melting point is reported as 85 to 86 °C.
With `N#CC(=Cc1ccc(O)c(O)c1)C(=O)Nc1ccc(Br)cc1` the melting point was 277 to 278 °C.
`O=C1NC(=O)C(c2ccc(-c3ccccc3)cc2)(N2CCN(c3ccc(N4C(=O)CCC4=O)cc3)CC2)C(=O)N1` showed a melting point of 310 to 311 °C.
With `CC(C)CNC1NC(=O)N(c2ccccc2C(=O)O)C(=O)N1` the melting point was > 300 °C.
In the case of `O=C(CC1CCCCCC1=O)c1ccc([N+](=O)[O-])cc1` (stereo unspecified), the melting point is reported as 79 to 84 °C.
For `CCOC(=O)Cc1ccc(SCc2cc(C)ccc2C(=O)O)cc1`, the melting point was 94 °C.
`O=C1Nc2ccc(Cl)cc2C1(Cl)c1cccc2c1OCO2` (stereo unspecified) gave a melting point of 241 °C.
For `O=Cc1ccc(OCC=Cc2ccccc2)cc1`, the melting point was 89.5 to 90.5 °C.
`CN(C)CCCC(c1ccncc1)S(=O)(=O)c1ccc(Cl)cc1` (stereo unspecified) showed a melting point of 78 to 80 °C.
With `O=CC(Br)c1ccc(Cl)cc1` (stereo unspecified) the melting point was 178 °C.
`CC(C)c1nnn(-c2c(Cl)cccc2Cl)c1CO` gave a melting point of 154 to 155 °C.
`Cc1c(C(=O)c2cnn(C(C)C)c2O)ccc2sc(=O)n(C)c12` gave a melting point of 175 to 177 °C.
In the case of `Cc1nc(CC2CCN(c3ccccc3)CC2)nc(C(=O)NCC(=O)O)c1O`, the melting point is reported as 141 °C.
For `Cn1cccc1CCNCC(O)COc1cccc2[nH]ccc12` (stereo unspecified), the melting point was 105 to 106 °C.
Work on `Nc1ncc(-c2noc(-c3cnn4c(C(F)(F)F)cc(-c5ccc(C(F)(F)F)cc5)nc34)n2)cn1` yielded a melting point of 254 °C.
`CCOC(OCC)C(N)=C(c1ccncc1N)c1ccccc1Cl` showed a melting point of 94 to 95 °C.
Work on `O=C(O)c1cc(N2C(=O)CCC2=O)cc([N+](=O)[O-])c1` yielded a melting point of 285 to 290 °C.
For `O=C(Nc1cnc2ccccc2c1)c1cc2cc(F)ccc2n1Cc1cccc(F)c1`, the melting point was 244 to 246 °C.
Molecule `Oc1c2c(nn1-c1nc3ccccc3[nH]1)CCc1ccccc1-2` has a melting point of 205 to 206 °C.
`Oc1ccc(-c2ncco2)cc1` showed a melting point of 167 to 168 °C.
`COc1cc(C=CC(=O)O)ccc1NC(C)=O` showed a melting point of 222 to 230 °C.
Molecule `CCOc1cc(-c2cc(C(F)(F)F)n3ncc(C(=O)Nc4cc(S(N)(=O)=O)sc4Cl)c3n2)ccc1C(F)(F)F` has a melting point of 281 °C.
`OC(c1ccccc1)(c1ccc(Cl)cc1)c1nccn1Cc1ccccc1` (stereo unspecified) showed a melting point of 174 to 175 °C.
`CCc1cc(=O)n(-c2cc(OC(C)C)c(Cl)cc2F)c(=O)n1C` gave a melting point of 72 to 74 °C.
Molecule `CCCCCCCCCCCCCCN(C(=O)CCCCCCCCCCC)C1(N)OC(CO)C(O)C(O)C1C(=O)C(N)C(=O)C(C)N` (stereo unspecified) has a melting point of 115 to 117 °C.
`NC(=O)CC[C@H](NCc1ccccc1C(=O)O)C(=O)O` showed a melting point of 132 to 133 °C.
In the case of `CCc1nnc2n1-c1ccc(Cl)cc1C(c1ccccc1)=NC2`, the melting point is reported as 229 to 230 °C.
Molecule `CCn1c(COC(=O)NC(C)=O)nc(C(C)C)c1Sc1cc(Cl)cc(Cl)c1` has a melting point of 163 to 164 °C.
`N#CCc1cnn2ccc3c(c12)CCO3` showed a melting point of 165 to 166 °C.
With `Cc1cc(C)c(NC(=O)CCCCCl)c(Cl)c1` the melting point was 80.6 to 82.9 °C.
For `O=C1CCCc2cc(NS(=O)(=O)c3ccccc3)ccc21`, the melting point was 164 to 165 °C.
For `NC(=O)CCCCn1cnc(NC(N)=NCC(F)(F)F)n1`, the melting point was 162 to 164 °C.
In the case of `Cc1nc(O)sc1C(=O)CBr`, the melting point is reported as 162 °C.
Work on `Cc1[nH]cnc1/C=C/C(=O)c1c(C)sc2ccccc12` yielded a melting point of 154 to 156 °C.
Molecule `CC(C)CCCOc1c(-c2ccc(S(C)(=O)=O)cc2)cnn(-c2cccc(Cl)c2)c1=O` has a melting point of 139 to 140 °C.
In the case of `CCCCc1nc(=O)n2nc(-c3ccco3)cc2[nH]1`, the melting point is reported as 190 °C.
`CC(=O)Oc1ccc(CN2C(=O)C(=O)c3ccccc32)cc1` showed a melting point of 159 to 161 °C.
Work on `O=C(O)C(=O)c1cn(Cc2ccc(F)cc2)c2ccc(-c3ccccc3)cc12` yielded a melting point of 165 to 166 °C.
In the case of `COC(=O)c1ccc(C=CC(=O)N2CCc3c([nH]c4ccccc34)C2c2ccc3c(c2)OCO3)cc1` (stereo unspecified), the melting point is reported as 211 °C.
Work on `O=C(O)n1ccc2c(OCc3ccccc3)c(Cc3ccccc3)ccc21` yielded a melting point of 181 to 183 °C.
`C=CCc1ccc2c(c1O)CCC(=O)N2c1ccccc1` showed a melting point of 177 to 178 °C.
`CC(C)NS(=O)(=O)c1cc(-c2ncnc(C(F)F)c2Cl)c(F)cc1Cl` gave a melting point of 172 to 175 °C.
`O=C(NCCO)c1cccc(-c2ccc3ccn(Cc4ccc(Cl)cc4Cl)c3n2)c1` gave a melting point of 161 to 162 °C.
Molecule `CC#Cc1cc(N(C)C)nc(Nc2ccccc2)n1` has a melting point of 150 to 152 °C.
`CC1(C)CCC(C)(C)c2cc(C=O)c(F)cc21` gave a melting point of 119 to 120 °C.
For `CC(=O)SC[C@H](NC(=O)OC(C)(C)C)C(=O)NC(CS)C(C)=O` (stereo partly specified), the melting point was 111 to 113 °C.
With `CN(C)S(=O)(=O)N1CCN(C(=O)c2ccc(Nc3ccnc4cc(C(F)(F)F)ccc34)cc2)CC1` the melting point was 223 to 224 °C.
